Source: ChEMBL document CHEMBL1144853, “Arginine binding motifs: design and synthesis of galactose-derived arginine tweezers as galectin-3 inhibitors” (J Med Chem, 2008)

Target: Galectin-3 (Homo sapiens, UniProt P17931)
Assay: Binding affinity to human galectin 3 by Fluorescence polarization assay

Galectin-3, sequence (P17931 whole entry): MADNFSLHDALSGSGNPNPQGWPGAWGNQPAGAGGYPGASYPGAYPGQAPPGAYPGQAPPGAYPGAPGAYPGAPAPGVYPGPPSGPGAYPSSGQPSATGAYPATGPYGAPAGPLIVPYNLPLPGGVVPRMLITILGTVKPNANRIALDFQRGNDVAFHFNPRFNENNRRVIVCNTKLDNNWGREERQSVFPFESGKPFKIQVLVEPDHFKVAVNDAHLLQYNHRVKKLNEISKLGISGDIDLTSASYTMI

| Compound | Kd [µM] |
| --- | --- |
| CS[C@@H]1O[C@H](CO)[C@H](O)[C@H](NC(=O)c2ccc(C)cc2)[C@H]1OP(=O)(O)OCc1ccccc1 | 120 |
| CS[C@@H]1O[C@H](CO)[C@H](O)[C@H](NC(=O)c2ccc(C)cc2)[C@H]1O[PH](=O)O | 150 |
| CS[C@@H]1O[C@H](CO)[C@H](O)[C@H](NC(=O)c2ccc(C)cc2)[C@H]1O | 220 |
| CS[C@@H]1O[C@H](CO)[C@H](O)[C@H](NC(=O)c2ccc(C)cc2)[C@H]1OC(=O)c1ccccc1 | 380 |
| CS[C@@H]1O[C@H](CO)[C@H](O)[C@H](O)[C@H]1OS(=O)(=O)O | 2800 |
| CS[C@@H]1O[C@H](CO)[C@H](O)[C@H](NC(=O)c2ccc(C)cc2)[C@H]1OS(=O)(=O)O | 87 |

Further lines, results first:

| Kd [µM] | Compound |
| --- | --- |
| 250 | CS[C@@H]1O[C@H](CO)[C@H](O)[C@H](NC(=O)c2ccc(C)cc2)[C@H]1OP(=O)(O)O |
| 5900 | CS[C@@H]1O[C@H](CO)[C@H](O)[C@H](O)[C@H]1O |
| 240 | CS[C@@H]1O[C@H](CO)[C@H](O)[C@H](NC(=O)c2ccc(C)cc2)[C@H]1OC(C)=O |
